Data: patent US8110573B2, “Pyrazole compounds that modulate the activity of CDK, GSK and aurora kinases” (Astex Therapeutics Limited, priority 2004, dated 2012)

How the values were obtained:
CDK1/CyclinB = molecular target: T1, CDK1/CyclinB (Homo sapiens, UniProt P06493); test: Activated CDK1/CyclinB kinase inhibitory activity assay; assay type: biochemical
T1 construct: purchased Upstate Discovery
Protocol: (§1) The reaction is allowed to proceed for 2 to 4 hours before being stopped with an excess of ortho-phosphoric acid (5 μl at 2%). γ^33P-ATP which remains unincorporated into the histone H1 is separated from phosphorylated histone H1 on a Millipore MAPH filter plate. The wells of the MAPH plate are wetted with 0.5% orthophosphoric acid, and then the results of the reaction are filtered with a Millipore vacuum filtration unit through the wells. Following filtration, the residue is washed twice with 200 μl of 0.5% orthophosphoric acid. Once the filters have dried, 20 μl of Microscint 20 scintillant is added, and then counted on a Packard Topcount for 30 seconds.
CDK1/CyclinB assay is identical to the CDK2/CyclinA above except that CDK1/CyclinB (Upstate Discovery) is used and the enzyme is diluted to 6.25 nM.

CDK2/CyclinA = CDK2/CyclinA (Homo sapiens, UniProt P24941); test: Activated CDK2/CyclinA kinase inhibitory activity assay; assay type: biochemical
Protocol: as §1

[1] = Salt stability at 40° C. 75% RH followed by XRPD; assay type: physicochemical; settings: 40° C. and 75% RH over the period of 1-2 month
Protocol: Approximately 15 mg of samples for the stability study were gently ground by marble mortar and transferred to a Petri dish in a thin layer. Samples were then placed in sealed containers containing saturated NaCl solution with an excess of undissolved NaCl. […] Samples were analysed by X-ray powder diffraction (XRPD) in regular intervals. Samples for XRPD data collection were loaded into crystallographic capillary (from Hampton Research, made of Quartz, diameter=0.4 mm). […] 2D Images were collected while spinning φ axis with a detector to crystal distance of 250 mm. Data collection was controlled by CrystalClear software and 2D images were converted to 1D plot (2θ vs. Intensity) by Datasqueeze (intensity averaged over the azimuthal angle 0<χ<360° for 2θ range 3-30° in 0.01° steps).

T1 sequence (P06493 whole entry): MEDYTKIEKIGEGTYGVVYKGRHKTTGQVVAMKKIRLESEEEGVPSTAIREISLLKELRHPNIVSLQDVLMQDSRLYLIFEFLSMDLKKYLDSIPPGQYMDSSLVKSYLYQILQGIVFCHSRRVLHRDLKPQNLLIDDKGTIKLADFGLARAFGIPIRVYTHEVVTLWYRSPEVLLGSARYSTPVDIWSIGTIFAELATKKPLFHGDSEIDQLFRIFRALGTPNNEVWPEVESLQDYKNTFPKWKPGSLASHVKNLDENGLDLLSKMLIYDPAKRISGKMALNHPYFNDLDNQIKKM
T1 sequence (P14635 whole entry partner): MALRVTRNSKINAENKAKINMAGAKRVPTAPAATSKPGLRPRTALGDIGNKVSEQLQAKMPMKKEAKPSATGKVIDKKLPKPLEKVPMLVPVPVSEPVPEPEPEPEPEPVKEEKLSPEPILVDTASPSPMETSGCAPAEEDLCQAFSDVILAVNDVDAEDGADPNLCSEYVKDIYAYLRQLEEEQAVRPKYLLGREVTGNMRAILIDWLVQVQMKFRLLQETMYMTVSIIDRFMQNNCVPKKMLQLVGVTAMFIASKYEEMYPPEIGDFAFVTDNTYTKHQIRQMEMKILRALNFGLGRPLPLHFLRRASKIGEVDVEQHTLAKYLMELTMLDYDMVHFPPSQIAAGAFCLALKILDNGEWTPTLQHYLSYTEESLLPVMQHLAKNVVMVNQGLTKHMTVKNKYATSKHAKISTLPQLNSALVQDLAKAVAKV

SMILES | IC50 (CDK1/CyclinB) | IC50 (CDK2/CyclinA) | change of XRPD pattern on storage [1]
COc1cc2nc(-c3n[nH]cc3NC(=O)C3CN(C(C)C)CCO3)[nH]c2cc1OC (racemic) [Example 16, N-[3-(5,6-dimethoxy-1H-benzimidazol-2-yl)-1H-pyrazol-4-yl]-rac-4 isopropyl-2-morpholine carboxamide] | < 10 µM |  | 
COc1cc2nc(-c3n[nH]cc3NC(=O)C3CCCN(C)C3)[nH]c2cc1OC (racemic) [Example 17, N-[3-(5,6-dimethoxy-H-benzimidazol-2-yl)-1H-pyrazol-4-yl]-rac-1-methyl-piperidine 3-carboxamide] | < 10 µM |  | 
COc1ccc(C#N)cc1C(=O)Nc1c[nH]nc1-c1nc2cc(CN3CCOCC3)ccc2[nH]1 [Example 1, 5-cyano-2-methoxy-N-[3-(5-morpholin-4-ylmethyl-1H-benzoimidazol-2-yl)-1H-pyrazol-4-yl]-benzamide] | < 1 µM | < 1 µM | 
Cc1nc2sccn2c1C(=O)Nc1c[nH]nc1-c1nc2cc(CN3CCOCC3)ccc2[nH]1 [Example 2, 6-methyl-imadazol[2,1-b]thiazole-5-carboxylic acid[3-(5-morpholin-4-ylmethyl-1H-benzoimidazol-2-yl)-1H-pyrazol-4-yl]-amide] | < 50 µM |  | 
N#CCC(=O)Nc1c[nH]nc1-c1nc2cc(CN3CCOCC3)ccc2[nH]1 [Example 3, 2-cyano-N-[3-(5-morpholin-4-ylmethyl-1H-benzoimidaxol-2-yl)-1H-pyrazol-4-yl]-acetamide] | < 10 µM |  | 
N#CC(C(=O)Nc1c[nH]nc1-c1nc2cc(CN3CCOCC3)ccc2[nH]1)C1CC1 (stereo not drawn) [Example 4, 2-Cyano-2-cyclopropyl-N-[3-(5-morpholin-4-ylmethyl-1H-benzoimidazol-2-yl)-1H-pyrazol-4-yl]-acetamide] | < 1 µM |  | 
CC(C)(CO)C(=O)Nc1c[nH]nc1-c1nc2cc(CN3CCOCC3)ccc2[nH]1 [Example 8] | < 10 µM |  | 
O=C(Nc1c[nH]nc1-c1nc2cc(CN3CCOCC3)ccc2[nH]1)C1CCOC1 (stereo not drawn) [Example 9] | < 10 µM |  | 
O=C(CC1CC1)Nc1c[nH]nc1-c1nc2cc(CN3CCOCC3)ccc2[nH]1 [Example 10] | < 1 µM | < 1 µM | 
O=C(Nc1c[nH]nc1-c1nc2cc(CN3CCOCC3)ccc2[nH]1)C1CCCO1 (stereo not drawn) [Example 11] | < 1 µM | < 1 µM | 
O=C(Nc1c[nH]nc1-c1nc2cc(CN3CCOCC3)ccc2[nH]1)[C@@H]1CCCO1 [Example 13] | < 1 µM |  | 
COc1cc2nc(-c3n[nH]cc3NC(=O)c3cc(Cl)cc(N4CCN(C)CC4)c3)[nH]c2cc1OC [Example 18, 3-chloro-N-(5,6-dimethoxy-1H-benzoimidazol-2-yl)-1H-pyrazol-4-yl-5-(4-methyl-piperazin-1-yl)-benzamide] |  | < 1 µM | 
COc1cc2nc(-c3n[nH]cc3NC(=O)c3ccoc3CN(C)C)[nH]c2cc1OC [Example 20] | < 10 µM | < 1 µM | 
COc1ccc(Cl)cc1C(=O)Nc1c[nH]nc1-c1nc2cc(CN3CCN(C)CC3)ccc2[nH]1 [Example 22, 5-chloro-2-methoxy-N-{3-[5-(4-methyl-piperazin-1-ylmethyl)-1H-benzoimidazol-2-yl]-1H-pyrazol-4-yl}-benzamide] | < 1 µM | < 1 µM | 
O=C(NCc1c(F)cccc1F)Nc1c[nH]nc1-c1nc2cc(CN3CCOCC3)ccc2[nH]1 [Example 23] | < 50 µM |  | 
O=C(NCC1CCOCC1)Nc1c[nH]nc1-c1nc2cc(CN3CCOCC3)ccc2[nH]1 [Example 26] | < 50 µM |  | 
O=C(Nc1c[nH]nc1-c1nc2cc(CN3CCOCC3)ccc2[nH]1)NC1CCOCC1 [Example 27] | < 50 µM |  | 
O=C(Nc1c[nH]nc1-c1nc2cc(CN3CCOCC3)ccc2[nH]1)N1Cc2ccccc2C1 [Example 28] | < 10 µM |  | 
O=C(Nc1c[nH]nc1-c1nc2cc(CN3CCOCC3)ccc2[nH]1)N1CCc2ccccc21 [Example 29] | < 10 µM |  | 
O=C(Nc1c[nH]nc1-c1nc2cc(CN3CCOCC3)ccc2[nH]1)NN1CCCC1 [Example 30] |  | < 1 µM | 
CN(C)NC(=O)Nc1c[nH]nc1-c1nc2cc(CN3CCOCC3)ccc2[nH]1 [Example 31] | < 10 µM | < 1 µM | 

SMILES | IC50 (CDK1/CyclinB) | IC50 (CDK2/CyclinA) | change of XRPD pattern on storage [1]
O=C(Nc1c[nH]nc1-c1nc2cc(CN3CCOCC3)ccc2[nH]1)NN1CCOCC1 [Example 32] | < 10 µM | < 1 µM | 
CS(=O)(=O)CCNC(=O)Nc1c[nH]nc1-c1nc2cc(CN3CCOCC3)ccc2[nH]1 [Example 33] | < 50 µM |  | 
O=C(NCC1CC1)Nc1c[nH]nc1-c1nc2cc(CN3CCOCC3)ccc2[nH]1 [Example 34] | < 10 µM |  | 
CN(C(=O)Nc1c[nH]nc1-c1nc2cc(CN3CCOCC3)ccc2[nH]1)c1ccc(F)cc1 [Example 37, 1-(4-fluorophenyl)-1-methyl-3-[3-(5-morpholin-4-ylmethyl-1H-benzimadazol-2-yl)-1H-pyrazol-4-yl]-urea] | < 50 µM |  | 
Cn1cccc(NC(=O)Nc2c[nH]nc2-c2nc3cc(CN4CCOCC4)ccc3[nH]2)c1=O [Example 39] | < 10 µM |  | 
CN(C(=O)Nc1c[nH]nc1-c1nc2cc(CN3CCOCC3)ccc2[nH]1)c1cccc(F)c1 [Example 41] | < 10 µM |  | 
CN(C(=O)Nc1c[nH]nc1-c1nc2cc(CN3CCOCC3)ccc2[nH]1)c1ccc(F)cc1F [Example 42] | < 1 µM |  | 
CN(C(=O)Nc1c[nH]nc1-c1nc2cc(CN3CCOCC3)ccc2[nH]1)c1ccccc1F [Example 43] | < 50 µM |  | 
O=C(Nc1ccc(F)cc1)Nc1c[nH]nc1-c1nc2cc(CN3CCOCC3)ccc2[nH]1 [Example 44, 1-(4-fluorophenyl)-N-[3-(5-morpholin-4-ylmethyl-1H-benzimidazol-2-yl)-1H-pyrazol-4-yl]-urea] |  | < 10 µM | 
CC(C)(C)NC(=O)Nc1c[nH]nc1-c1nc2cc(CN3CCOCC3)ccc2[nH]1 [Example 45] | < 10 µM | < 10 µM | 
O=C(Nc1ccc(F)cc1F)Nc1c[nH]nc1-c1nc2cc(CN3CCOCC3)ccc2[nH]1 [Example 46] | < 10 µM | < 1 µM | 
O=C(Nc1cc(F)ccc1F)Nc1c[nH]nc1-c1nc2cc(CN3CCOCC3)ccc2[nH]1 [Example 47] | < 1 µM | < 1 µM | 
O=C(Nc1ccccc1F)Nc1c[nH]nc1-c1nc2cc(CN3CCOCC3)ccc2[nH]1 [Example 49] | < 10 µM |  | 
O=C(Nc1cccc(F)c1)Nc1c[nH]nc1-c1nc2cc(CN3CCOCC3)ccc2[nH]1 [Example 50] | < 10 µM |  | 
O=C(Nc1c[nH]nc1-c1nc2cc(CN3CCOCC3)ccc2[nH]1)NC1CCCCC1 [Example 51] | < 10 µM | < 10 µM | 
O=C(NCc1ccco1)Nc1c[nH]nc1-c1nc2cc(CN3CCOCC3)ccc2[nH]1 [Example 52] | < 10 µM |  | 
O=C(Nc1cc(F)cc(F)c1)Nc1c[nH]nc1-c1nc2cc(CN3CCOCC3)ccc2[nH]1 [Example 53] | < 10 µM | < 10 µM | 
O=C(Nc1c[nH]nc1-c1nc2cc(CN3CCOCC3)ccc2[nH]1)Nc1c(F)cc(F)cc1F [Example 54] | < 1 µM | < 1 µM | 
COc1ccc(Cl)cc1NC(=O)Nc1c[nH]nc1-c1nc2cc(CN3CCOCC3)ccc2[nH]1 [Example 56] | < 10 µM |  | 
O.O.O=C(Nc1c[nH]nc1-c1nc2cc(CN3CCOCC3)ccc2[nH]1)NC1CC1 [dihydrate free base (FB2), 1-cyclopropyl-3-[3-(5-morpholin-4-ylmethyl-1H-benzoimidazol-2-yl)-1H-pyrazol-4-yl]-urea free base dihydrate] |  |  | do not change
